Test results published in patent US11753445B2, “Therapeutic peptides” (COHBAR, INC., priority 2016, dated 2023).
Ends that are not written are not given here.

How the values were obtained:
[1] = system: Diet Induced Obese (DIO) mice; assay: Body weight and fat mass in Diet Induced Obese mice, 10 days (Example 20); assay type: in vivo, Male C57BL/6 mice; details: male DIO mice, N = 8, Mean (SEM)
Experimental: Male C57BL/6 mice were maintained on a high fat diet for 18 weeks to develop diet induced obesity. Animals were randomized to treatment groups based on blood glucose levels and body weight. The peptides of the invention were administered to two groups of male DIG mice once or twice daily by intraperitoneal or subcutaneous injection at a doses of 5 to 15 mg/kg/dose for 10 days (N=8 animals per treatment group). An additional group of male DIG mice (n=8) received vehicle (water or saline) alone. Body weight, blood glucose levels and food intake were monitored. Body mass distribution (fat vs lean) was determined by quantitative whole body NMR prior to dosing and at the end of dosing. Administration of the peptides of the invention produced body weight loss and/or decrease in fat mass from baseline values (Table 18).

3T3-L1 Adipocytes [2] = assay: Free fatty acid levels in cultured mouse 3T3-L1 adipocytes, isoproterenol stimulated (Example 17); assay type: cell-based; details: Peptide Concentration 25 μM; isoproterenol 1 nM
Experimental: Mouse 3T3-L1 cells were seeded at a density between 1,000-20,000 cells per well on 96-well, 48-well, or 24-well plates in Pre-adipocyte Medium (Zen-Bio, Durham, N.C.) and grown to confluence at 37° C. in a humidified atmosphere of 5% CO2/95% air. Two days after confluence, cells were placed in Adipocyte Differentiation Medium (Zen-Bio, Durham, N.C.) and cultured for three additional days at 37° C. in a humidified atmosphere of 5% CO2/95% air. The culture media was then replaced with Adipocyte Maintenance Medium (Zen-Bio) and the cells were maintained for an additional 9-14 days at 37° C. in a humidified atmosphere of 5% CO2/95% air with partial medium replacement every other day. Following 12-17 days of differentiation, test peptides were added at a final concentration of 25-50 μM and incubated for 18-20 hours in Adipocyte Maintenance Medium at 37° C. in a humidified atmosphere of 5% CO2/95%. After the media incubation, media was removed and exchanged with Assay Buffer (Zen-Bio) containing isoproterenol (1 nM) (added to all samples except untreated controls) and the test peptides. Cells were incubated for a further 3 hours at 37° C. in a humidified atmosphere of 5% CO2/95%. Free fatty acid concentrations in the media were determined using a Free Fatty Acid Assay Kit (Zen-Bio) according to the manufacturer's instructions using a plate reader (540 nm).
Absorbance values were corrected for untreated background and expressed relative to isoproterenol treated cells. Treatment with isoproterenol (1 nM) alone was used as the free fatty acid level stimulatory control. The relative standard deviation of the isoproterenol control was <10%. […] Free fatty acid levels for insulin (100 nM) treatment were <5% of the isoproterenol control value.

[3] = system: Diet Induced Obese (DIO) mice; assay: Body weight and fat mass in Diet Induced Obese mice, 21-day study (Example 7); assay type: in vivo, Male C57BL/6 mice; details: male DIO mice, Mean (SD)
Experimental: Male C57BL/6 mice were maintained on a high fat diet for 12 to 22 weeks to develop diet induced obesity. Animals were randomized to treatment groups based on blood glucose levels and body weight. The peptides (SEQ ID No: 208 and SEQ ID NO: 210) were each administered to a group of male DIO mice twice daily by appropriate routes at a dose of 15 mg/kg/dose for 21 days (N=8 to 12 animals per treatment group). […] Metabolic parameters including body weight, blood glucose levels and food intake were monitored. Body mass distribution (fat vs lean) was determined where appropriate by quantitative whole body NMR prior to dosing and at the end of dosing.

Human Primary Adipocytes [4] = assay: Free fatty acid levels in cultured human primary adipocytes, isoproterenol stimulated (Example 4); assay type: cell-based; details: test peptides 25 μM; isoproterenol 1 nM
Experimental: Human primary adipocytes were seeded at 5,000-100,000 cells per well on 96-well, 48-well, or 24-well plates in Pre-adipocyte Medium (Zen-Bio, Durham, N.C.) and grown to confluence at 37° C. in a humidified atmosphere of 5% CO2/95% air. Two days after confluence, cells were placed in Adipocyte Differentiation Medium (Zen-Bio, Durham, N.C.) and cultured for three additional days at 37° C. in a humidified atmosphere of 5% CO2/95% air. The culture media was then replaced with Adipocyte Maintenance Medium (Zen-Bio) and the cells were maintained for an additional 11-21 days at 37° C. in a humidified atmosphere of 5% CO2/95% air with partial medium replacement every other day. Following 14-24 days of differentiation, test peptides were added at a final concentration of 25 μM and incubated for 18-20 hours in Adipocyte Maintenance Medium at 37° C. in a humidified atmosphere of 5% CO2/95%. After 18-20 hours, the media was exchanged with fresh Adipocyte Maintenance Medium containing test peptides and incubated for 1 h at 37° C. in a humidified atmosphere of 5% CO2/95%. After 1 h media was exchanged with Assay Buffer (Zen-Bio) containing isoproterenol (1 nM) (added to all samples except untreated controls) and test peptides. Cells were incubated for a further 3 hours at 37° C. in a humidified atmosphere of 5% CO2/95%. Free fatty acid concentrations in the media were determined using a Free Fatty Acid Assay Kit (Zen-Bio) according to the manufacturer's instructions using a plate reader (540 nm). Absorbance values were corrected for untreated background and expressed relative to isoproterenol treated cells. Treatment with isoproterenol (1 nM) alone was used as the free fatty acid level stimulatory control. The relative standard deviation of the isoproterenol control was <14%. […] Free fatty acid levels for insulin (100 nM) treatment were <5% of the isoproterenol control value.

3T3-L1 Adipocytes [5] = assay: Free fatty acid levels in cultured mouse 3T3-L1 adipocytes, isoproterenol stimulated (Example 2); assay type: cell-based; details: test peptides 25 μM; isoproterenol 1 nM
Procedure, shortened: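 Release of free fatty acids, read at 540 nm, was stimulated with 1 nM isoproterenol for 3 h in mouse 3T3-L1 adipocytes (12–17 days of differentiation). Cells were pre-exposed to 25 μM peptide for 18–20 h plus 1 h, with peptide kept in during stimulation. Values are background-subtracted and normalised to isoproterenol alone.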

Human Primary Adipocytes [6] = assay: Free fatty acid levels in cultured human primary adipocytes, forskolin stimulated (Example 5); assay type: cell-based; details: test peptides 25 μM; forskolin 1 μM
Procedure, shortened: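 Differentiated human primary adipocytes (14–24 days) were exposed to peptides at 25 μM for 18–20 h and 1 h, then stimulated with 1 μM forskolin plus peptide for 3 h at 37 °C. Medium free fatty acids were measured colorimetrically (540 nm), background-corrected and expressed relative to forskolin-only cells.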

3T3-L1 Adipocytes [7] = assay: Free fatty acid levels in cultured mouse 3T3-L1 adipocytes, forskolin stimulated (Example 3); assay type: cell-based; details: test peptides 25 μM; forskolin 1 μM
Experimental: Mouse 3T3-L1 cells were seeded at 1,000-20,000 cells per well on 96-well, 48-well, or 24-well plates in Pre-adipocyte Medium (Zen-Bio, Durham, N.C.) and grown to confluence at 37° C. in a humidified atmosphere of 5% CO2/95% air. Two days after confluence, cells were placed in Adipocyte Differentiation Medium (Zen-Bio, Durham, N.C.) and cultured for three additional days at 37° C. in a humidified atmosphere of 5% CO2/95% air. The culture media was then replaced with Adipocyte Maintenance Medium (Zen-Bio) and the cells were maintained for an additional 9-14 days at 37° C. in a humidified atmosphere of 5% CO2/95% air with partial medium replacement every other day. Following 12-17 days of differentiation, test peptides were added at a final concentration of 25 μM and incubated for 18-20 hours in Adipocyte Maintenance Medium at 37° C. in a humidified atmosphere of 5% CO2/95%. After 18-20 hours, the media was exchanged with fresh Adipocyte Maintenance Medium containing test peptides and incubated for 1 h at 37° C. in a humidified atmosphere of 5% CO2/95%. After 1 h media was exchanged with Assay Buffer (Zen-Bio) containing forskolin (1 μM) (added to all samples except untreated controls) and test peptides. Cells were incubated for a further 3 hours at 37° C. in a humidified atmosphere of 5% CO2/95%. Free fatty acid concentrations in the media were determined using a Free Fatty Acid Assay Kit (Zen-Bio) according to the manufacturer's instructions using a plate reader (540 nm). Absorbance values were corrected for untreated background and expressed relative to forskolin treated cells. Treatment with forskolin (1 μM) alone was used as the free fatty acid level stimulatory control. The relative standard deviation of the forskolin control was <10%. […] Free fatty acid levels for insulin (100 nM) treatment were <9% of the forskolin control value.

[8] = Stability in mouse plasma, peptides 100 uM (Example 14); assay type: in vitro ADME; details: mouse plasma 37° C., peptide 100 uM; for remaining at 0.25 h, 100 uM / remaining at 0.5 h, 100 uM / remaining at 1 h, 100 uM / remaining at 2 h, 100 uM / remaining at 3 h, 100 uM: pooled mouse plasma; for remaining at 0.25 h, 100 uM: 15 min, read-out: % Remaining at Each Time Point: 15 min; for remaining at 0.5 h, 100 uM: 30 min, read-out: % Remaining at Each Time Point: 30 min; for remaining at 1 h, 100 uM: 60 min, read-out: % Remaining at Each Time Point: 60 min; for remaining at 2 h, 100 uM: 120 min, read-out: % Remaining at Each Time Point: 120 min; for remaining at 3 h, 100 uM: 180 min, read-out: % Remaining at Each Time Point: 180 min
Experimental: Peptides (100 uM) were incubated in pooled mouse plasma at 37° C. and samples were removed and immediately analyzed for the concentration of intact peptide by LC/MS/MS over the course of 3 hours. The percent of peptide remaining in plasma at each time point was calculated relative to the initial peak area (Table 12).

[9] = Stability in mouse plasma, peptides 10 uM (Example 15); assay type: in vitro ADME; details: mouse plasma 37° C., peptide 10 uM
Experimental: Peptides (10 uM) were incubated in pooled mouse plasma at 37° C. and samples were removed and immediately analyzed for the concentration of intact peptide by LC/MS/MS over the course of 3 hours. The percent of peptide remaining in plasma at each time point was calculated relative to the initial peak area (Table 13).

[10] = 10 days once daily administration 15 mg/kg
[11] = 10 days twice daily intraperitoneal 15 mg/kg

357 (PEG600-KRWQEMNYIFYPR) [compound 357]
Decrease from Baseline in Body Weight (%) [1, 10]: −1.2 (0.6) %
Decrease from Baseline in Fat Mass (g) [1, 10]: −0.2 (0.2) g
Decrease from Baseline in Body Weight (%) [1, 11]: −3.4 (1.0) %
Decrease from Baseline in Fat Mass (g) [1, 11]: −1.0 (0.4) g
Free Fatty Acid Levels in 3T3-L1 Adipocytes Expressed as a Percent of Isoproterenol Control: Percent of Control Value (3T3-L1 Adipocytes [2]): 30.8%

CCc1ccc(CCOc2ccc(CC3SC(=O)NC3=O)cc2)nc1 (stereo not drawn) [Pioglitazone, pioglitazone, reference compound]
Decrease from Baseline in Body Weight (%) ([3]; 21 days twice daily PO 15 mg/kg/dose): 1.0 (3.1) %

H-EMNYIFYPR-OH [compound 364]
Decrease from Baseline in Body Weight (%) [1, 11]: −6.6 (1.6) %
Decrease from Baseline in Fat Mass (g) [1, 11]: −3.7 (1.2) g
Free Fatty Acid Levels in 3T3-L1 Adipocytes Expressed as a Percent of Isoproterenol Control: Percent of Control Value (3T3-L1 Adipocytes [2]): 87.2%

H-MRWQEMGYIFYPRKLR-OH [SEQ ID NO: 2, reference compound]
Decrease from Baseline in Body Weight (%) ([3]; 21 days twice daily IP 15 mg/kg/dose): −9.3 (5.0) %

H-MRWQEMQYIFYPR-OH [compound 209]
Free Fatty Acid Levels in Human Primary Adipocytes Expressed as a Percent of Isoproterenol Control: Percent of Control Value (Human Primary Adipocytes [4]): 66.8%
Free Fatty Acid Levels in 3T3-L1 Adipocytes Expressed as a Percent of Isoproterenol Control: Percent of Control Value (3T3-L1 Adipocytes [5]): 30.1%
Free Fatty Acid Levels in Human Primary Adipocytes Expressed as a Percent of Forskolin Control: Percent of Control Value (Human Primary Adipocytes [6]): 90.1%
Free Fatty Acid Levels in 3T3-L1 Adipocytes Expressed as a Percent of Forskolin Control: Percent of Control Value (3T3-L1 Adipocytes [7]): 33.3%
% Remaining at Each Time Point: 0 min [8]: 100%
remaining at 0.25 h, 100 uM [8]: 47.5%
remaining at 0.5 h, 100 uM [8]: 38.9%
remaining at 1 h, 100 uM [8]: 38%
remaining at 2 h, 100 uM [8]: 36.3%
remaining at 3 h, 100 uM [8]: 38.3%

H-NYIFYPR-OH [compound 361]
Decrease from Baseline in Body Weight (%) [1, 11]: −5.8 (0.8) %
Decrease from Baseline in Fat Mass (g) [1, 11]: −3.8 (0.5) g
Free Fatty Acid Levels in 3T3-L1 Adipocytes Expressed as a Percent of Isoproterenol Control: Percent of Control Value (3T3-L1 Adipocytes [2]): 76.3%

H-RWQEMNYIFYP-OH [compound 283]
% Remaining at Each Time Point: 0 min ([9]; 0 min): 100%
remaining at 0.25 h, 10 uM ([9]; pooled mouse plasma, 15 min, read-out: % Remaining at Each Time Point: 15 min): 54.3%
remaining at 0.5 h, 10 uM ([9]; pooled mouse plasma, 30 min, read-out: % Remaining at Each Time Point: 30 min): 25.8%
remaining at 1 h, 10 uM ([9]; pooled mouse plasma, 60 min, read-out: % Remaining at Each Time Point: 60 min): 2.05%
remaining at 2 h, 10 uM ([9]; pooled mouse plasma, 120 min, read-out: % Remaining at Each Time Point: 120 min): 0.35%
remaining at 3 h, 10 uM ([9]; pooled mouse plasma, 180 min, read-out: % Remaining at Each Time Point: 180 min): 0.14%
Free Fatty Acid Levels in 3T3-L1 Adipocytes Expressed as a Percent of Isoproterenol Control: Percent of Control Value (3T3-L1 Adipocytes [5]): 90.8%
Decrease from Baseline in Body Weight (%) [1, 11]: −5.5 (0.4) %
Decrease from Baseline in Fat Mass (g) [1, 11]: −3.0 (0.2) g

H-WQEMGYIFYPRKLR-OH [compound 39]
Free Fatty Acid Levels in Human Primary Adipocytes Expressed as a Percent of Isoproterenol Control: Percent of Control Value (Human Primary Adipocytes [4]): 22.2%
Free Fatty Acid Levels in 3T3-L1 Adipocytes Expressed as a Percent of Isoproterenol Control: Percent of Control Value (3T3-L1 Adipocytes [5]): 84.3%
Free Fatty Acid Levels in Human Primary Adipocytes Expressed as a Percent of Forskolin Control: Percent of Control Value (Human Primary Adipocytes [6]): 80.8%
Free Fatty Acid Levels in 3T3-L1 Adipocytes Expressed as a Percent of Forskolin Control: Percent of Control Value (3T3-L1 Adipocytes [7]): 114%
% Remaining at Each Time Point: 0 min [8]: 100%
remaining at 0.25 h, 100 uM [8]: 39.5%
remaining at 0.5 h, 100 uM [8]: 38.8%
remaining at 1 h, 100 uM [8]: 54.9%
remaining at 2 h, 100 uM [8]: 24%
remaining at 3 h, 100 uM [8]: 16.3%
